Assay results: PMC8155176, “Reversible modulation of circadian time with chronophotopharmacology” (Nature Communications, 2021)
Entries after “also recorded” stand apart in the source; their conditions may differ.

How the values were obtained:
U2OS cells = assay: Circadian period assay in Bmal1-dLuc U2OS reporter cells; type: cell-based, human
Description: Next, we tested if the observed light-dependent CKIα inhibition translates into photomodulation of the circadian period in human U2OS cells (Fig. 2d). The Bmal1-dLuc reporter cell line contains the coding sequence of destabilized luciferase driven by the Bmal1 gene promoter sequence. The cell culture medium for luminescence recording includes a high concentration of luciferin (0.2 mM), a substrate for luciferase, which strongly absorbs UV light (Supplementary Fig. 30). […] As the circadian period change is directly correlated with the potency and concentration of the inhibitor[10], the cells were treated with photoswitchable modulators using a broad range of concentrations.
In comparison to the kinase assay, the direct use of UV light for preventing a thermal back-isomerization of the cis-isomer was not feasible due to the cell-damaging effect and the presence of luciferin in the medium. Therefore, the modulators were kept in the dark or photo-isomerized in DMSO prior to the addition, without further irradiation during the circadian assay. All three modulators lengthened the period in the U2OS cells both in the dark and upon irradiation (Fig. 2d). […] Altogether, based on the efficient generation of the cis-isomer under irradiation, retained potency and promising light-modulation of CKIα inhibition, the meta-substituted modulator 4 was identified as representing lead substitution pattern for further investigation.
Stable U2OS reporter cells harboring Bmal1-dLuc reporter were suspended in phenol red-free culture medium [DMEM (D2902, Sigma) supplemented with 10% fetal bovine serum, 3.5 mg/mL D-glucose, 3.7 mg/mL sodium bicarbonate, 0.29 mg/mL L-glutamine, 100 units/mL penicillin, and 100 µg/mL streptomycin] and plated onto a white, solid-bottom 384-well plates at 30 µL (3000 cells) per well. After 2 days, 40 µL of phenol red-free explant medium [DMEM (D2902, Sigma) supplemented with 2% B27 (Gibco), 10 mM HEPES, 3.5 mg/mL D-glucose, 0.38 mg/mL sodium bicarbonate, 0.29 mg/mL L-glutamine, 100 units/mL penicillin, 100 µg/mL streptomycin, and 0.2 mM luciferin; pH 7.2] was dispensed into each well, followed by the application of 0.5 μL of compounds (dissolved in DMSO; final 0.7% DMSO; pre-irradiated with UV for 60 min, white LED for 10 min, and/or green LED for 60 min when indicated). The plate was covered with an optically clear film, and subjected to irradiation with 530 nm LED lamp (3 × 550 mW, λmax = 530 nm, FWHM 36 nm, Sahlmann Photochemical Solutions) or 400 nm LED lamp (3 × 1000 mW, λmax = 400 nm, FWHM 11.9 nm, Sahlmann Photochemical Solutions) from 12 cm distance for 30 min. Compound handling and irradiation were conducted in a dark room under red lamp illumination. Luminescence was recorded every 100 min in a microplate reader, Infinite M200Pro (Tecan). For the phase control experiments, cellular light irradiation was performed in a dark 32 °C room and luminescence was recorded in a microplate reader Synergy H1 (BioTek) placed in the same room, to avoid possible effect of transient temperature change on the phase. Circadian period and phase were determined from luminescence rhythms by a curve fitting program MultiCycle (Actimetrics). Data from the first day was excluded from analysis, because of transient changes in luminescence upon medium change. Statistical significance was evaluated using two-way analysis of variance (ANOVA) followed by a Sidak’s multiple comparisons test or one-way ANOVA followed by a Tukey’s multiple comparisons test using Prism software (GraphPad Software).

[1] = Fatigue on repeated photoisomerization cycles; type: physicochemical
Description: Upon reaching PSS distribution with green light, thermal back-isomerization was followed in the dark for 14 h (gray background). After this period, violet light was applied (violet rectangle) for 8 min to confirm the presence of the remaining cis-isomer and estimate cis-to-trans ratio. Green light allowed for switching to the cis-isomer once again (green rectangle), showing that in situ isomerization is possible. c Reversible photochromism in cell culture medium followed at 312 nm absorbance. […] The thermally adapted sample is shown in black (dark), irradiated with green light in vitro (pre-incubation, shown in green), with violet light in cellulo (post-incubation, shown in gray), and with green light in vitro followed by violet light in cellulo in purple. The control experiment with longdaysin is also shown. Luminescence rhythm profiles and data for DMSO-treated cells are shown in Supplementary Figs. 25 and 26, respectively. Luminescence is given in arbitrary units. n = 3 biologically independent samples for the CKIα enzymatic assay (d), n = 2 biologically independent samples for the CKIδ enzymatic assay (d), and n = 3 biologically independent samples for the cellular assay (e). […]
Supplementary Figure 30. […] The spectrum is measured at pH 7.4 (0.1 mM in water) and in presence of 0.1 mM concertation of luciferin. […]

SMILES | period change, first 3 days, kept in dark (U2OS cells; 8 μM (Fig. 5b)) [h] | period lengthening, dark treatment of green-irradiated cells, additional 3 days (U2OS cells; 8 μM (Fig. 5b)) [h] | period lengthening, violet light treatment of dark-kept cells (U2OS cells; 8 μM (Fig. 5b)) [h] | period lengthening after violet light on the third day of green-irradiated cells (U2OS cells; 8 μM, 400 nm in situ (Fig. 5b)) [h] | period lengthening, three additional days after green light irradiation (U2OS cells; 8 μM, green light 530 nm in cellulo after 3 days (Fig. 5a)) [h] | period change after photoisomerization with green light in vitro (U2OS cells; 8 µM, green light 530 nm pre-incubation (Fig. 4e)) [h] | period change, first 3 days, green light-irradiated cells (U2OS cells; 8 μM, green light in cellulo at start (Fig. 5b)) [h] | period lengthening after green light in vitro and violet light in cellulo (U2OS cells; 8 µM, in situ back-photoisomerization 400 nm (Fig. 4e)) [h] | period lengthening vs DMSO, three additional days, non-irradiated (U2OS cells; 8 μM, kept dark (Fig. 5a)) [h] | period lengthening, trans-isomer (dark) (U2OS cells; 8 µM, thermally adapted, dark (Fig. 4e)) [h] | period change, first 3 days in the dark (U2OS cells; 8 μM, trans-9 applied (Fig. 5a)) [h] | effect of violet light only on dark samples on the circadian period activity (U2OS cells; violet light 400 nm in cellulo (Fig. 4e)) | fatigue upon repeated illumination cycles [1] | effect of UV light irradiation on period lengthening (U2OS cells; UV (365 nm) pre-irradiated) | recovery of biological activity upon back-isomerization with white light (U2OS cells; UV light followed by white light) | period lengthening effect under dark conditions (U2OS cells; dark)
CC(C)n1cnc2c(NCc3ccc(F)c(/N=N/c4c(F)cccc4F)c3F)ncnc21 [Compound 9] | 7 | 5 | 8 | 8 | 2 | 1 | 2 | 4 | 10 | 4 | 5 | no effect | very low fatigue; also recorded: Almost no fatigue | – | – | –
Cc1nn(C)c(C)c1/N=N/c1cccc(CNc2ncnc3c2ncn3C(C)C)c1 [Compound 8] | – | – | – | – | – | – | – | – | – | – | – | – | low fatigue | suppressed by UV light irradiation | full recovery | strong period lengthening effect
